# Data: patent publication US11351155B2, “Compositions and methods of modulating s-nitrosylation” (CASE WESTERN RESERVE UNIVERSITY, priority 2014, dated 2022)
# T1: Adh6 (Saccharomyces cerevisiae, UniProt Q04894)
# T1 construct: endogenous in cells; host or cells: S. cerevisiae cells; five-step chromatographic purification from crude extract
# T1 sequence (Q04894 1-360): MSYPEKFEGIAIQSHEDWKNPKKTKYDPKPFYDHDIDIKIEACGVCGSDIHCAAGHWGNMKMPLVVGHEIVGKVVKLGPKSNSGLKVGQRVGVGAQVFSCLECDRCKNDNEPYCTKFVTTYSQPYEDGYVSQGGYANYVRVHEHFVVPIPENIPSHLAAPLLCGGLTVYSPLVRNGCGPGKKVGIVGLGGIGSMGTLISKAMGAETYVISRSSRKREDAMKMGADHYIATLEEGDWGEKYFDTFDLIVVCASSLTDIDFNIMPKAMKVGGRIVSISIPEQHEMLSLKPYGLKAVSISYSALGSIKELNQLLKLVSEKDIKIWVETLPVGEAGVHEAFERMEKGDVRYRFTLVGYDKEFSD
# What was measured:
# [1] = biological target: T2, Erg10 (acetoacetyl-CoA thiolase) (Saccharomyces cerevisiae, UniProt P41338); experiment: Assay for acetoacetyl-CoA thiolase (Erg10) activity; type: biochemical, yeast (S. cerevisiae); details: for Effect on Erg10 thiolase activity: yeast extracts and purified protein (FIG. 4D, E)
# T2 construct: Erg10 activity was assayed in extracts of WT yeast in the presence or absence of SNO-CoA; endogenous in cells; host or cells: wild-type S. cerevisiae lysate/extract
# Method: Acetoacetyl-CoA thiolase activity was assayed in the physiological forward direction (2 acetyl-CoA→acetoactyl-CoA+CoA-SH) by following the formation of CoA-SH with 5,5′-dithiobis(2-nitrobenzoic acid) (DTNB) at 412 nm, as outlined recently for assay of HMG-CoA synthase activity. This approach avoids background absorbance in lysates and interference from added SNO-CoA in the reverse-reaction assay of acetoacetyl-CoA consumption at 300 nm (acetoacetyl-CoA+CoA-SH→2 acetyl-CoA). The assay was performed in 20 mM tris pH 8.0, containing 0.1 mM EDTA and 0.1 mM DTPA. The reaction mixture (1 ml) contained yeast lysate and 100 μM acetyl-CoA. Reaction without the addition of acetyl-CoA was used as background control. In some experiments, various concentrations of GSNO or SNO-CoA were also added. The reaction was monitored following the addition of 0.5 mM DTNB for 3 min at 412 nm. Thiolase activity was determined using rates between 1 and 3 minutes.
# WT and adh6Δ yeast = experiment: Metabolomic analysis of mevalonate, CoA and acetyl-CoA in treated yeast; type: cell-based, yeast (S. cerevisiae); details: 2 hr
# Method: In extracts of WT and adh6Δ yeast (untreated and following treatment with EtCysNO), mevalonate, CoA and acetyl-CoA were separated and quantified by GC-MS (mevalonate) or LC-MS/MS (CoA, acetyl-CoA).
# Yeast cells grown to mid-log phase (absorbance 600 nm=0.4-0.6) were left untreated or treated with EtCysNO (100 μM) for 2 hrs. Cells were harvested and washed with ice-cold H2O containing 0.1 mM EDTA or DTPA and stored at −80° C. until further analysis. To the samples, 3 ml of MeOH: H2O (8:2) was added followed by addition of 100 μl of D4 (1 mM) citrate as an internal standard. Samples were homogenized for 1 minute and 1 ml of the subsequent homogenate was taken and centrifuged at 800 g for 20 minutes. Supernatant was dried by nitrogen gas. 60 μl of N,O-bistrifluoroacetaniide was added to the dried residue and incubated at 70° C. for 30 minutes. Analyses were carried out on an Agilent 5973 mass spectrometer, linked to a 6890 gas chromatograph system equipped with an autosampler. An Agilent VF-5MS capillary column (60 m×0.32 mm×0.25 μm) was used for chromatographic separation. The carrier gas was helium (1 ml/min) with a pulse pressure of 20.1 p.s.i. The injection was in splitless mode. The temperature for both inlet and transfer line was set at 300° C. The ion source and quadrupole temperature were set at 230 and 150° C. The GC temperature program was as follows: start at 80° C., hold for 1 min, and increase by 10° C./min to 300° C., and it remained at 300° C. for 9 min. Mevalonate and internal standard signals were monitored at its nominal m/z with SIM mode. The m/z monitored for mevalonate and internal standard: 349 and 469, respectively. All the masses were measured in Electron Impact Ion Source. The retention times of mevalonate and internal standard are 15.2 and 18.1 minutes, respectively.
# Yeast cells grown to mid-log phase (absorbance 600 nm=0.4-0.6) were left untreated or treated with EtCysNO (500 μM) for 2 hrs. […]
# intact yeast cells = experiment: SNO-RAC/iTRAQ identification of SNO-proteins in treated intact yeast; type: cell-based, yeast (S. cerevisiae); details: intact cells treated with 100 μM for 2 hr
# Method: Protein S-nitrosylation was assessed by the SNO-RAC assay, and differences in the profile of protein S-nitrosylation in WT versus adh6Δ yeast (under basal growth conditions and upon treatment of cells with EtCysNO) were quantified by iTRAQ labeling.
# (§1) For analysis in yeast, cells were grown to absorbance 600 nm=1.0 and lysed by bead beating in lysis buffer (20 mM bis-tris propane, pH 7.0, 50 mM NaCl, 100 mM EDTA, 100 μM DTPA, 1 mM PMSF and protease inhibitor cocktail (Roche)). The lysate was centrifuged at 20,000 g for 10 min and the supernatant was adjusted to 1 mg/ml protein and retained for analysis. For analysis of SNO-proteins by mercury-coupled-photolysis-chemiluminescence, samples were processed as previously described. […] Eluates were analyzed by SDS-PAGE followed by Western blotting for erg10 (see below) or, for mass spectrometric analysis, individual lanes were excised from the gel and subjected to trypsin digest prior to processing for LC/MS-MS (see below). […]
# (§2) Prior to analysis by LC-MS/MS, samples were passed through a C18 spin column (Thermo Pierce, Rockford, Ill.) and reconstituted in 0.1% formic acid. […] For peptide identification and quantification using iTRAQ reporter ions, MS analysis was performed using a hybrid linear ion trap Orbitrap Velos mass spectrometer (LTQ-Orbitrap Velos, Thermo, Waltham, Mass.). […]
# Adh6 = biological target: T1, Adh6; experiment: Kinetic analysis and substrate specificity of SNO-CoA reductase activity of purified Adh6; type: biochemical, yeast (S. cerevisiae); details: purified Adh6 20 nM, NADPH 100 μM, substrate 100 μM (FIG. 2D)
# Method: (§3) Kinetic analysis was carried out with purified Adh6 and AKR1A1. The reactions contained a fixed concentration of NADPH (100 μM) and several concentrations of SNO-CoA.
# (§4) Kinetic analysis was carried out employing assay conditions as above. For Km determination, reactions (4-5 replicates) were performed with a fixed amount of purified Adh6, 100 μM NADPH and SNO-CoA concentrations of 16-375 μM. Initial rates were calculated from the absorbance decrease at 340 nm using a combined extinction coefficient of 7.06 mM^−1 cm^−1 for SNO and NADPH. The kcat was determined at saturating substrate concentrations.
# [2] = tested on: lysates of wild-type (WT) yeast; experiment: SNO-RAC/LC-MS/MS identification of SNO-proteins in treated yeast lysates; type: biochemical, yeast (S. cerevisiae); details: lysates treated with 60 μM for 10 min
# Method: as §1, with “described. For SNO-RAC, some samples (1 mg/ml) were left untreated or treated for 10 min with 60 μM SNO-CoA±100 μM NADPH. The reaction was stopped by adding 3 volumes of ice-cold acetone, followed by precipitation at −20° C. for 20 min.” for “described.”
# as §2
# [3] = substrate: CC(C)(COP(=O)(O)OP(=O)(O)OC[C@H]1O[C@@H](n2cnc3c(N)ncnc32)[C@H](O)[C@@H]1OP(=O)(O)O)[C@@H](O)C(=O)NCCC(=O)NCCSN=O; experiment: Kinetic analysis and substrate specificity of SNO-CoA reductase activity of purified Adh6; type: biochemical, yeast (S. cerevisiae); details: other: purified Adh6, 100 μM NADPH
# Method: as §3, §4
# [4] = substrate: CC(C)(COP(=O)(O)OP(=O)(O)OC[C@H]1O[C@@H](n2cnc3c(N)ncnc32)[C@H](O)[C@@H]1OP(=O)(O)O)[C@@H](O)C(=O)NCCC(=O)NCCSN=O; experiment: Kinetic analysis of SNO-CoA reductase activity of purified AKR1A1; type: biochemical, bovine; details: other: purified AKR1A1, 100 μM NADPH; pH 7.0
# Method: as §3
# Kinetic analyses were carried out in 50 mM phosphate buffer, pH 7.0, containing 100 μM EDTA and DTPA. For Km determination, reactions (2-4 replicates) were performed with a fixed amount of purified AKR1A1, 100 μM NADPH and 2-500 μM SNO-CoA. Initial rates were calculated from the absorbance decrease at 340 nm. The kcat was determined at saturating substrate concentrations.
# T2 sequence (P41338 whole entry): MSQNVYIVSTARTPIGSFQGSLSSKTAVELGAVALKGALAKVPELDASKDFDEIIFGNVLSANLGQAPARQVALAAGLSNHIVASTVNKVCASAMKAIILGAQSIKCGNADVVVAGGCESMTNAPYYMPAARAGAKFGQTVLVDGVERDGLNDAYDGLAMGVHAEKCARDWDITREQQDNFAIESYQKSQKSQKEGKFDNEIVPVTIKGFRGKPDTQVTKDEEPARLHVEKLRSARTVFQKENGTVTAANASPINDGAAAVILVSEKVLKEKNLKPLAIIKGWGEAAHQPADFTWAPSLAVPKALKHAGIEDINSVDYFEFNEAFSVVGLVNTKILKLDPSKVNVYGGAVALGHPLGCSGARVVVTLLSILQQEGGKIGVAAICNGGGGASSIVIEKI
molecule,measurement,setting,value
CC(C)(COP(=O)(O)OP(=O)(O)OC[C@H]1O[C@@H](n2cnc3c(N)ncnc32)[C@H](O)[C@@H]1OP(=O)(O)O)[C@@H](O)C(=O)NCCC(=O)NCCSC(=O)CCC(=O)O [succinyl-CoA],Effect on Erg10 thiolase activity,[1],neither GSNO (FIG. 4D) nor succinyl-CoA (a CoA analogue) (FIG. 4E) had a significant effect
"CCOC(=O)[C@@H](N)CSN=O [EtCysNO, S-nitroso-cysteine ethyl ester]",Change of mevalonate levels,"WT and adh6Δ yeast; adh6Δ yeast, 100 μM",significant decrease
same,Change of free CoA levels,"WT and adh6Δ yeast; yeast, 500 μM",large decreases
same,Change of acetyl-CoA levels,"WT and adh6Δ yeast; yeast, 500 μM, increase larger in adh6Δ versus WT cells",increased
same,Number of SNO-proteins identified,intact yeast cells,103
"N[C@@H](CSN=O)C(=O)O [CysNO, S-nitroso-cysteine]",Metabolism by Adh6 (NADPH consumption),Adh6,does not metabolize
"N[C@@H](CCC(=O)N[C@@H](CSN=O)C(=O)NCC(=O)O)C(=O)O [GSNO, S-nitrosoglutathione]",Effect on Erg10 thiolase activity,[1],neither GSNO (FIG. 4D) nor succinyl-CoA (a CoA analogue) (FIG. 4E) had a significant effect
same,Metabolism by Adh6 (NADPH consumption),Adh6,specific for SNO-CoA versus GSNO
"CC(C)(COP(=O)(O)OP(=O)(O)OC[C@H]1O[C@@H](n2cnc3c(N)ncnc32)[C@H](O)[C@@H]1OP(=O)(O)O)[C@@H](O)C(=O)NCCC(=O)NCCSN=O [SNO-CoA, S-nitroso-CoA]",IC50,"[1]; purified protein, read-out: IC50 for inhibition of Erg10 thiolase activity",4 µM
same,Effect on Erg10 thiolase activity,[1],potently inhibited
same,Number of SNO-proteins identified,[2],345
"Adh6 (Saccharomyces cerevisiae S288C) (protein, endogenous in cells; host or cells: S. cerevisiae cells; five-step chromatographic purification from crude extract) MSYPEKFEGIAIQSHEDWKNPKKTKYDPKPFYDHDIDIKIEACGVCGSDIHCAAGHWGNMKMPLVVGHEIVGKVVKLGPKSNSGLKVGQRVGVGAQVFSCLECDRCKNDNEPYCTKFVTTYSQPYEDGYVSQGGYANYVRVHEHFVVPIPENIPSHLAAPLLCGGLTVYSPLVRNGCGPGKKVGIVGLGGIGSMGTLISKAMGAETYVISRSSRKREDAMKMGADHYIATLEEGDWGEKYFDTFDLIVVCASSLTDIDFNIMPKAMKVGGRIVSISIPEQHEMLSLKPYGLKAVSISYSALGSIKELNQLLKLVSEKDIKIWVETLPVGEAGVHEAFERMEKGDVRYRFTLVGYDKEFSD",Km,[3],180.5 ± 16.8 µM
same,kcat,[3],43.275 ± 1.845 s⁻¹
"AKR1A1 (Bos taurus) (protein, Bovine kidney tissue (˜50 g) was suspended in 100 ml of lysis buffer; tissue Rockland Immunochemicals Inc. (tissue supplier); host or cells: bovine kidney) MAASCILLHTGQKMPLIGLGTWKSDPGQVKAAIKYALSVGYRHIDCAAIYGNETEIGEALKENVGPGKLVPREELFVTSKLWNTKHHPEDVEPALRKTLADLQLEYLDLYLMHWPYAFERGDSPFPKNADGTIRYDSTHYKETWRALEALVAKGLVRALGLSNFNSRQIDDVLSVASVRPAVLQVECHPYLAQNELIAHCQARNLEVTAYSPLGSSDRAWRDPEEPVLLKEPVVLALAEKHGRSPAQILLRWQVQRKVSCIPKSVTPSRILENIQVFDFTFSPEEMKQLDALNKNLRFIVPMLTVDGKRVPRDAGHPLYPFNDPY",Km,[4],20.5 ± 1.8 µM
same,kcat,[4],10.4 ± 0.396 s⁻¹
